IC50 data for 23 molecules are collected here from patent publication US11708366B2, “Heteroaryl substituted spiropiperidinyl derivatives and pharmaceutical uses thereof” (Novartis AG, priority 2020, dated 2023).

The target of test [1] is T1, LTC4S (Homo sapiens (Human), UniProt Q16873). In words: Human LTC4S enzymatic assay (HTRF detection of LTC4-Me). In kind it is biochemical. How it is done:
A. Human LTC4S Enzymatic Assay:
LTC4 synthase catalyzes the conversion of Leukotriene A4 (LTA4) to Leukotriene C4 (LTC4) in the presence of reduced glutathione (GSH) as a co-substrate. For compound testing, compounds are delivered as 10 mM stock solutions in 90% DMSO in matrix tubes. From this, a 1:3 dilution dose response series is prepared with a starting concentration of 30 μM to 0.1 nM. For the enzymatic assay 97.5 nL of compound/DMSO solution is transferred to each well and 5 μL enzyme solution (assay buffer: 50 mM bis-tris propane pH 7.3, 250 mM NaCl, 10 mM MgCl2, 0.001% MGN3) is added to the wells. […] The enzyme compound mixture is incubated at room temperature for 15 minutes prior to the addition of 5 μL substrate solution. […] A final substrate concentration of 400 μM GSH and 5 μM LTA4-Me is chosen.
The LTA4-Me is obtained commercially in 2% triethylamine/hexane solvent. As this solvent is incompatible with the HTRF assay it has to be exchanged with DMSO according to following procedure: add 50 μL of 100% DMSO to 50 μL LTA4-Me (3 mM) in a 2 mL Eppendorf tube and mix gently by inverting the tube. The triethylamine/hexane is evaporated under a constant argon flux at room temperature. The DMSO-LTA4-Me (3 mM) is aliquoted and stored at −20° C. for not longer than 4 weeks, as it is not stable in DMSO due to its oxidizing properties.
Upon addition of the substrate, the plate is immediately placed on a shaker for 5 min at room temperature. Immediately after the 5 min incubation 5 μL of H2O2 solution is added to all wells to stop the reaction. The plate contents are mixed before the addition of detection reagents. […] For the detection of the product of the enzymatic reaction LTC4-Me, the Cisbio LTC4-HTRF kit is used as the assay is compatible with the detection of LTC4-Me. 5 μL of diluted LTC4-d2 conjugate (according to manufacturer's protocol) are added to all wells of the assay plate and the contents gently mixed and incubated for 5 minutes at room temperature. […] The percent inhibition for each point of an inhibition curve is calculated after data interpolation using the LTC4-Me standard curve, to convert the HTRF signal to the amount of LTC4-Me produced within the LTC4S catalyzed reaction on each plate. The data is analyzed using parametric curve fitting to determine IC50 values of LTC4S inhibitors.
(In general: Time-resolved FRET reads energy transfer from a long-lived donor to a nearby acceptor.)

For test [2], the target named is T1, LTC4S. In words: Human whole blood HTRF assay (LTC4 release after calcium ionophore A23187). Conditions: calcium ionophore A23187 stimulation, LTC4 by HTRF. Format: cell-based.
The mark [3] stands for this setting: 0.75 nM enzyme, 400 μM GSH, 5 μM LTA4-Me, 15 min pre-incubation, read-out: human LTC4S IC50 (enzymatic assay).
Setting [4] is: human whole blood diluted 1:3, 4 h incubation, read-out: human whole blood HTRF IC50.

Usually IC50 stands for the point on the concentration scale where inhibition reaches its midpoint. Regarding `O=C1CCCC2(CCN(c3cc(-c4ccc(F)cc4)cc[n+]3[O-])CC2)N1c1ccc(Cl)c(F)c1` [Example 33, 2-(1-(4-chloro-3-fluorophenyl)-2-oxo-1,9-diazaspiro[5.5]undecan-9-yl)-4-(4-fluorophenyl)pyridine 1-oxide], the IC50 in test [1] (setting [3]) amounted to 24 nM; in test [2] (setting [4]), 56 nM.
The like results for `O=C1CCCC2(CCN(c3nnc(-c4ccccc4)o3)CC2)N1c1ccc(Cl)c(F)c1` [Example 28, 1-(4-chloro-3-fluorophenyl)-9-(5-phenyl-1,3,4-oxadiazol-2-yl)-1,9-diazaspiro[5.5]undecan-2-one] were, in that order, 110 nM and 450 nM.
The like results for `O=C1CCCC2(CCN(c3ncnc(N4CCCC4)c3F)CC2)N1c1ccc(Cl)c(F)c1` [Example 36, 1-(4-chloro-3-fluorophenyl)-9-(5-fluoro-6-(pyrrolidin-1-yl)pyrimidin-4-yl)-1,9-diazaspiro[5.5]undecan-2-one] were, in that order, 6 nM and 44 nM.
Take `O=C1CCCC2(CCN(c3ccnc(N4CC5(CC5)C4)n3)CC2)N1c1ccc(Cl)c(F)c1` [Example 35a, 9-(2-(5-azaspiro[2.3]hexan-5-yl)pyrimidin-4-yl)-1-(4-chloro-3-fluorophenyl)-1,9-diazaspiro[5.5]undecan-2-one]: the IC50 in test [1] was determined as 12 nM; in test [2] (human whole blood HTRF IC50, human whole blood diluted 1:3, 4 h incubation), 40 nM.
Turning to `O=C1CCCC2(CCN(c3nccc(C(F)(F)F)n3)CC2)N1c1ccc(Cl)c(F)c1` [Example 3, 1-(4-chloro-3-fluorophenyl)-9-(4-(trifluoromethyl)pyrimidin-2-yl)-1,9-diazaspiro[5.5]undecan-2-one], the figures for the IC50 in test [1] (setting [3]) and in test [2] (setting [4]) were 8 nM and 180 nM, respectively.
Taken in the same sequence, the figures for `O=C1CCCC2(CCN(c3nnn(-c4ccccc4)n3)CC2)N1c1ccc(Cl)c(F)c1` [Example 22, 1-(4-chloro-3-fluorophenyl)-9-(2-phenyl-2H-tetrazol-5-yl)-1,9-diazaspiro[5.5]undecan-2-one] were 11 nM and 530 nM.
The like results for `O=C1CCCC2(CCN(c3cnn(-c4ccc(F)cc4)n3)CC2)N1c1ccc(Cl)c(F)c1` [Example 31, 1-(4-chloro-3-fluorophenyl)-9-(2-(4-fluorophenyl)-2H-1,2,3-triazol-4-yl)-1,9-diazaspiro[5.5]undecan-2-one] were, in that order, 15 nM and 120 nM.
Turning to `O=C1CCCC2(CCN(c3noc([C@H]4C[C@@H]4C(F)(F)F)n3)CC2)N1c1ccc(Cl)c(F)c1` [Example 6b, 1-(4-chloro-3-fluorophenyl)-9-(5-((1S,2S)-2-(trifluoromethyl)cyclopropyl)-1,2,4-oxadiazol-3-yl)-1,9-diazaspiro[5.5]undecan-2-one, or 1-(4-chloro-3-fluorophenyl)-9-(5-((1R,2R)-2-(trifluoromethyl)cyclopropyl)-1,2,4-oxadiazol-3-yl)-1,9-diazaspiro[5.5]undecan-2-one], the IC50 in test [1] (setting [3]) is 44 nM.
Same read-out and setting: under `O=C1CCCC2(CCN(c3nc(N4CCCC4)nnc3O)CC2)N1c1ccc(Cl)c(F)c1` [Example 8, 1-(4-chloro-3-fluorophenyl)-9-(6-hydroxy-3-(pyrrolidin-1-yl)-1,2,4-triazin-5-yl)-1,9-diazaspiro[5.5]undecan-2-one] stands 7 nM.
Still for that read-out and setting: under `O=C1CCCC2(CCN(c3cc(N4CC(F)(F)C(F)(F)C4)ncn3)CC2)N1c1ccc(Cl)c(F)c1` [Example 44, 1-(4-chloro-3-fluorophenyl)-9-(6-(3,3,4,4-tetrafluoropyrrolidin-1-yl)pyrimidin-4-yl)-1,9-diazaspiro[5.5]undecan-2-one] stands 13 nM; under `O=C1CCCC2(CCN(c3nc4ccc(C(F)(F)F)cc4o3)CC2)N1c1ccc(Cl)c(F)c1` [Example 2, 1-(4-chloro-3-fluorophenyl)-9-(6-(trifluoromethyl)benzo[d]oxazol-2-yl)-1,9-diazaspiro[5.5]undecan-2-one], 36 nM.
Turning to `O=C1CCCC2(CCN(c3nccc(N4CC5(CC5)C4)n3)CC2)N1c1ccc(Cl)c(F)c1` [Example 35b, 9-(4-(5-azaspiro[2.3]hexan-5-yl)pyrimidin-2-yl)-1-(4-chloro-3-fluorophenyl)-1,9-diazaspiro[5.5]undecan-2-one], the IC50 in test [1] was found to be 3 nM.
Regarding `Nc1nc(O[C@H](C2COC2)C(F)(F)F)cc(N2CCC3(CCCC(=O)N3c3ccc(F)c(F)c3)CC2)n1` (single isomer, unassigned) [Example 89b, (R)-9-(2-amino-6-(2,2,2-trifluoro-1-(oxetan-3-yl)ethoxy)pyrimidin-4-yl)-1-(3,4-difluorophenyl)-1,9-diazaspiro[5.5]undecan-2-one or (S)-9-(2-amino-6-(2,2,2-trifluoro-1-(oxetan-3-yl)ethoxy)pyrimidin-4-yl)-1-(3,4-difluorophenyl)-1,9-diazaspiro[5.5]undecan-2-one], the IC50 in test [2] (setting [4]) came to 5 nM.
The same measure, in the same setting: to `O=C1CCCC2(CCN(c3cc(-n4cc(Cl)cn4)ncn3)CC2)N1c1ccc(F)c(F)c1` [Example 55, 9-(6-(4-chloro-1H-pyrazol-1-yl)pyrimidin-4-yl)-1-(3,4-difluorophenyl)-1,9-diazaspiro[5.5]undecan-2-one] belongs 6 nM.
On the same count and under the same terms, under `NC(=O)c1nc(N2CCC3(CCCC(=O)N3c3ccc(F)c(F)c3)CC2)cc(-n2cc(C(F)(F)F)cn2)n1` [Example 68] stands 120 nM; under `O=C1CCCC2(CCN(c3cc(OCC(F)(F)F)nc(Cl)n3)CC2)N1c1ccc(F)c(F)c1` [Example 88, 9-(2-chloro-6-(2,2,2-trifluoroethoxy)pyrimidin-4-yl)-1-(3,4-difluorophenyl)-1,9-diazaspiro[5.5]undecan-2-one], 1370 nM; under `Nc1nc(N[C@@H]2CCOC2)cc(N2CCC3(CCCC(=O)N3c3ccc(F)c(F)c3)CC2)n1` [Example 112, (R)-9-(2-amino-6-((tetrahydrofuran-3-yl)amino)pyrimidin-4-yl)-1-(3,4-difluorophenyl)-1,9-diazaspiro[5.5]undecan-2-one], 67 nM.
The same measure, in the same setting: to `C[C@H](Oc1cc(N2CCC3(CCOC(=O)N3c3ccc(F)c(F)c3)CC2)nc(N)n1)C(F)(F)F` [Example 113b, (S)-9-(2-amino-6-((1,1,1-trifluoropropan-2-yl)oxy)pyrimidin-4-yl)-1-(3,4-difluorophenyl)-3-oxa-1,9-diazaspiro[5.5]undecan-2-one, or (R)-9-(2-amino-6-((1,1,1-trifluoropropan-2-yl)oxy)pyrimidin-4-yl)-1-(3,4-difluorophenyl)-3-oxa-1,9-diazaspiro[5.5]undecan-2-one] belongs 36 nM.
For the molecule `O=C1CCCC2(CCN(c3cc(-c4ccc(F)cc4)n[nH]c3=O)CC2)N1c1ccc(F)c(F)c1` [Example 11, 1-(3,4-difluorophenyl)-9-(6-(4-fluorophenyl)-3-oxo-2,3-dihydropyridazin-4-yl)-1,9-diazaspiro[5.5]undecane-2-one], in test [2] (setting [4]), the IC50 came to 6 nM.
Same read-out and setting: to `Nc1nc(N2CCC3(CCCC(=O)N3c3ccc(F)c(F)c3)CC2)cc(-n2cc(C(F)(F)F)cn2)n1` [Example 64, 9-(2-amino-6-(4-(trifluoromethyl)-1H-pyrazol-1-yl)pyrimidin-4-yl)-1-(3,4-difluorophenyl)-1,9-diazaspiro[5.5]undecane-2-one] belongs 2 nM; to `CC1(C(Oc2cc(N3CCC4(CCCC(=O)N4c4ccc(F)c(F)c4)CC3)nc(N)n2)C(F)(F)F)COC1` (racemic) [Example 96, rac-9-(2-amino-6-(2,2,2-trifluoro-1-(3-methyloxetan-3-yl)ethoxy)pyrimidin-4-yl)-1-(3,4-difluorophenyl)-1,9-diazaspiro[5.5]undecan-2-one], 3 nM; to `O=C1CCCC2(CCN(c3nc(C4=CCC(F)(F)CC4)c[nH]c3=O)CC2)N1c1ccc(F)c(F)c1` [Example 18, 9-(6-(4,4-difluorocyclohex-1-en-1-yl)-3-oxo-3,4-dihydropyrazin-2-yl)-1-(3,4-difluorophenyl)-1,9-diazaspiro[5.5]undecane-2-one], 2 nM.
Same read-out and setting: under `O=C1CCCC2(CCN(c3cc(OC4CCOCC4)nc(CO)n3)CC2)N1c1ccc(F)c(F)c1` [Example 106, 1-(3,4-difluorophenyl)-9-(2-(hydroxymethyl)-6-((tetrahydro-2H-pyran-4-yl)oxy)pyrimidin-4-yl)-1,9-diazaspiro[5.5]undecan-2-one] stands 69 nM.
